Data: patent US11384071B2, “Inhibitors of mechanotransduction to treat pain and modulate touch perception” (Max-Delbrück-Centrum für Molekulare Medizin in der …, priority 2016, dated 2022)

How the values were obtained:
diabetic mice (STZ) = assay: Streptozotocin (STZ) painful diabetic neuropathy model, von Frey; assay type: in vivo, mouse
Description: Eight week old C57Bl/6 mice were used for diabetes experiments. Diabetes was induced. Briefly, 6 consecutive intraperitoneal injections of streptozotocin (STZ, Sigma-Aldrich, #S0130) were given with 24 h intervals at 60 mg/Kg body weight in citrate buffer (0.05M, pH 4.5) to induce diabetes. Blood glucose was maintained between 400 and 500 mg/dL throughout the experimental period. Mechanical sensitivity was measured in regular intervals and only those mice showing increased sensitivity to von Frey filaments as compared with basal sensitivity were selected for testing the effects of OB-1.
Von Frey filaments of increasing strength (0.07, 0.16, 0.4, 0.6, 1.0 and 1.4 g) are applied 5 times with at least 1 min interval to intraplantar surface of hind paws to test the mechanical sensitivity. […] Frequency of positive responses was recorded out of 5 stimuli and percent of withdrawal frequency was calculated. Threshold was calculated as the von Frey filament strength required to elicit 60% withdrawal frequency. Vehicle or OB-1 (approximately 20 μl solution, 250 pmol per paw) was injected subcutaneously into intraplantar surface of diabetic mice under mild isoflurane anesthesia and mechanical sensitivity was measured from both injected (ipsilateral) and non-injected (contralateral) paws at 4 and 24 h post-injection.

[1] = tested on: 79 receptors and ion channels; assay: Commercial in vitro pharmacology panel (cerep); assay type: binding; settings: 20 μM, panel of 79 receptors and ion channels
Description: We next interrogated whether local application of OB-1 can ameliorate tactile-evoked pain behavior in neuropathic models. […] We decided to test this idea more directly by testing the effects of local OB-1 on the mechanical sensitivity of Stoml3^−/− mice with CCI. […] Off-target effects are an issue for any biologically active small molecule. We therefore tested the effects of 20 μM OB-1 in a commercially available in vitro pharmacology panel (www.cerep.fr) consisting of 79 receptors and ion channels.

STOML1 = target: T1, STOML1 (Mus musculus, UniProt Q8CI66); assay: BiFC assay of STOML1 self-association; assay type: cell-based
T1 construct: expressed in transfected cells; host or cells: HEK293 (general statement on the BiFC assay)
Description: (§1) FIG. 8: Effects of STOML3 modulating molecules on other Stomatin-domain proteins. (a) BiFC signal development observed when cells were transfected with Stomatin-VC/-VN, STOML1-VC/-VN, STOML2-VC/-VN, STOML3-VC/-VN or Podocin-VC/-VN expression constructs respectively. […] (b) OB-1 was tested at two different concentrations (2 μm and 20 μm) using the BiFC assay where wild type STOML3 was used as both bait and prey.
(§2) In mammals STOML3 belongs to a family of five structurally conserved membrane proteins, including stomatin, STOML1, STOML2, and podocin^10,12-16, all of which self-associate via their stomatin-domain (FIG. 8a)^10. Self-association of stomatin-domain proteins can be monitored in HEK293 cells using Bimolecular Fluorescence Complementation (BiFC) whereby N- and C-terminal halves of the YFP molecule are tagged to the prey and bait protein STOML3^2,17 (FIG. 1a). Irreversible association of the YFP fragments produces fluorescence that increases linearly over time (FIG. 1b).

hsSTOML3 = target: T2, hsSTOML3 (Homo sapiens, UniProt Q8TAV4); assay: TriGFP assay of hsSTOML3 self-association in N2a cells, flow cytometry; assay type: cell-based; settings: 20 μM, 16 h, vs vehicle
T2 construct: expressed in transfected cells; host or cells: N2a
Description: (a) The assay is based on the tripartite association between the two twenty amino-acids long GFP tags GFP10 and GFP11, which were fused to hsSTOML3 protein partners, and the complementary GFP1-9 detector (Reference 50). When hsSTOML3 proteins interact, GFP10 and GFP11 self-associate with GFP1-9 and reconstitute functional GFP.
N2a cells were cultured in 6-well plates to approximately 70% confluence; cells were co-transfected with plasmids encoding GFP1-9, STOML3-GFP10 and STOML3-GFP11 using PEI, as per manufacturer's instructions. The transfection reaction was allowed to proceed for 8 h before compound incubation at 20 μM final concentration. Twenty-four hours after transfection cells were collected, fixed with 4% PFA for 10 minutes and resuspended in PBS. Cell suspensions were used for flow cytometry analysis.
In this assay, N2a cells were co-transfected with plasmids encoding GFP1-9, STOML3-GFP10 and STOML3-GFP11 and incubated with either vehicle (0.4% DMSO) or OB-1 derivatives at 20 μM final concentration for 16 h. Twenty-four hours after transfection cells were collected, fixed with 4% PFA and resuspended in PBS.

[2] = tested on: dissociated mouse DRG neurons; assay: Action potential properties and electrical excitability of dissociated DRG neurons; assay type: cell-based
Description: Whole-cell, patch-clamp recordings were conducted as previously described 5-7, using patch pipettes with a tip resistance of 3-6 MΩ, filled with a solution of: 110 mM KCl, 10 mM NaCl, 1 mM MgCl2, 1 mM EGTA and 10 mM HEPES, adjusted to pH 7.3 with KOH. (For experiments on DRG neurons 10 mM QX-314 was added to the pipette to block voltage-gated sodium channels 8 Extracellular solutions contained 140 mM NaCl, 4 mM KCl, 2 mM CaCl2, 1 mM MgCl2, 4 mM glucose, 10 mM HEPES, adjusted to pH 7.4 with NaOH. A Zeiss 200 inverted microscope and an EPC-10 amplifier in combination with Patchmaster software was used, data was analyzed using Fitmaster software (HEKA Electronik GmbH, Germany). Pipette and membrane capacitance were compensated using the auto function of Patchmaster, series resistance was compensated by at least 60% to minimize voltage errors. Mechanical stimuli were applied using a polished glass probe driven by the MM3A micromanipulator (Kleindiek Nanotechnik, Germany). Mechanical stimuli were applied by either; indenting the cell soma or by culturing cells on elastomeric pillar arrays and applying the stimulus to the cell-substrate interface by deflecting an individual pilus.
Briefly, elastomeric pillar arrays of defined dimensions were cast in PDMS with an elasticity of 2 MPa. Cells cultured on these arrays were monitored using whole-cell patch-clamp whilst a glass probe was used to apply repeated deflections (of differing magnitudes) to an individual pilus directly beneath the cell. Images were obtained of the pilus before and after deflection and images were analyzed off-line to determine the exact deflection for each data point. Images were obtained using a 40×LD objective and a CoolSNAP EZ CCD camera. Images were analyzed off-line using Igor software (WaveMetrics, USA). The collection of stimulus-response data using pillar arrays generates data sets with variation in both x and y. In order to effectively compare groups for each cell studied we binned response data by stimulus size in the following bins: 0-10, 10-50, 50-100, 100-250, 250-500, 500-1000. For each cell, current amplitudes within each bin were averaged and then bins averaged between cells—we then tested for significance by testing whether the current amplitude for a given stimulation range (i.e. bin) differed between samples. A power analysis was used to determine that moderate to strong effects between samples could be detected with a sample size >4. […] To distinguish mechanoreceptors from nociceptors in the mixed population of acutely prepared DRG neurons, the shape of the generated action potential (AP) was used. […] For quantitative analysis of mechanosensitivity we measured responses in the most sensitive sub-population of mechanoreceptors, previously defined as Typell mechanoreceptors (Poole et al., 2014).
We evaluated the effects of OB-1 and OB-2 on mechanosensitive currents in acutely cultured mouse sensory neurons. Neurons were classified on the basis of their AP configuration as mechanoreceptors or nociceptors^2,21.

[3] = tested on: Spared tibial nerve injury (SNI) mice; assay: Spared nerve injury (SNI) model, paw withdrawal thresholds; assay type: in vivo, mouse; settings: administration to the plantar skin
Description: Mice were allowed to habituate to the testing apparatus (acrylic chambers 10×10 cm in size, suspended above a wired mesh grid) one hour prior to behavioral testing. Only once the subject was at rest and not moving, calibrated von-Frey hair monofilaments (Aesthesio® set of 20 monofilaments, Ugo Basil) were applied to the plantar surface of the hind paw in order to deliver target forces from 0.008 grams to 4 grams increasing in an approximately logarithmic scale. A single stimulus indicated by a slight bending of the filament lasted for two seconds unless the mouse withdrew its paw. In order to measure mechanosensitivity the up-and-down method described by Chaplan^13 was adapted as follows: Testing began with a filament delivering a target force of 0.4 g, but filaments were applied three times. A positive response was noted if the subject withdrew the paw to all three filament applications, so that the successively smaller filament was presented next. […] Paw withdrawal thresholds were calculated as median of 23 to 30 determined turning points of the particular force stimuli applied to the subject.

stomatin = target: T3, stomatin (Mus musculus, UniProt P54116); assay: BiFC assay of stomatin self-association; assay type: cell-based
T3 construct: expressed in transfected cells; host or cells: HEK293 (general statement on the BiFC assay)
Description: as §1, §2

T2 sequence (Q8TAV4 whole entry): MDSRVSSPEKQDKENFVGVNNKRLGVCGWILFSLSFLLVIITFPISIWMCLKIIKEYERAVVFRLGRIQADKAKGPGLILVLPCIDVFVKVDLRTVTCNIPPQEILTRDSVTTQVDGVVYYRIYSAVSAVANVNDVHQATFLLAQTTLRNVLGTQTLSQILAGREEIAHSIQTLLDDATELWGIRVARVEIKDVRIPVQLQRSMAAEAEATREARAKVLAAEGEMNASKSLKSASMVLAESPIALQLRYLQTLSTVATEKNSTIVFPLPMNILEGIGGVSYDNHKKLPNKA
T3 sequence (P54116 whole entry): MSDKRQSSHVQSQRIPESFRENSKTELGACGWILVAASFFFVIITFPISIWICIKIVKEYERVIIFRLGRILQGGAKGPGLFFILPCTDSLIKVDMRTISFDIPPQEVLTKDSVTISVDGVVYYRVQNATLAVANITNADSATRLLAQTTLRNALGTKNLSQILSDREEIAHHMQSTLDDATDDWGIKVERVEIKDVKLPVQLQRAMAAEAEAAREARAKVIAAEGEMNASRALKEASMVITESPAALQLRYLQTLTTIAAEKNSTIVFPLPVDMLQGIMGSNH
T1 sequence (Q8CI66 whole entry): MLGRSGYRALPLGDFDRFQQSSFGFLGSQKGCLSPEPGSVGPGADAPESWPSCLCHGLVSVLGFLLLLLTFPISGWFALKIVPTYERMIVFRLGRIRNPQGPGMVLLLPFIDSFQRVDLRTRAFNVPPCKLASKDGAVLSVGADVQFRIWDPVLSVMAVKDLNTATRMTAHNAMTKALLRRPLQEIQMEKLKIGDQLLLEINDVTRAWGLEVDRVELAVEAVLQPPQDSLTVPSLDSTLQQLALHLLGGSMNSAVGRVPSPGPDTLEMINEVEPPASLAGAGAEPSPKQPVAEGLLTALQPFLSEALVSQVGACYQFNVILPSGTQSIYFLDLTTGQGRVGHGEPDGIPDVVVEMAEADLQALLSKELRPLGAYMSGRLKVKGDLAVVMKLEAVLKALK

receptors with significant inhibition of specific ligand binding [1]: 6/79 | self-association of STOML1 (BiFC) (STOML1): effective inhibitor | hsSTOML3 self-association (GFP signal intensity) (hsSTOML3): strongly reduce | self-association of stomatin (BiFC) (stomatin): effective inhibitor
SMILES: CCOC(=O)c1c(-c2ccccc2)oc2ccc(Oc3c([N+](=O)[O-])ncn3C)cc12 [OB-1, Ethyl 5-((1-methyl-4-nitro-1H-imidazol-5-yl)oxy)-2-phenylbenzofuran-3-carboxylate]
mechanical hypersensitivity (diabetic mice (STZ); 250 pmol per paw, 4 h after treatment): substantially reversed | mechanical hypersensitivity, mean 60% withdrawal threshold (diabetic mice (STZ); 24 h after a single treatment): returned to pre-drug treatment levels | AHP (after-hyperpolarization potential) ([2]; Mechanoreceptors (n = 9)): −62.3 ± 1.6 mV | APamp (action potential amplitude) ([2]; Mechanoreceptors (n = 9)): 97.8 ± 4.9 mV | APtime (total duration of action potential) ([2]; Mechanoreceptors (n = 9)): 11.90 ± 2.9 ms | Input R ([2]; Mechanoreceptors (n = 9)): 40.8 ± 6.7 MΩ | Threshold ([2]; Mechanoreceptors (n = 9)): 700.0 ± 305.9 pA | Tpeak (Time to action potential peak) ([2]; Mechanoreceptors (n = 9)): 7.5 ± 2.0 ms | Trep (Time to repolarizing peak) ([2]; Mechanoreceptors (n = 9)): 4.5 ± 1.7 ms | Vrest (Resting potential) ([2]; Mechanoreceptors (n = 9)): −56.6 ± 2.0 mV | AHP (after-hyperpolarization potential) ([2]; Nociceptors (n = 12)): −67.4 ± 1.3 mV | APamp (action potential amplitude) ([2]; Nociceptors (n = 12)): 115.4 ± 4.0 mV | APtime (total duration of action potential) ([2]; Nociceptors (n = 12)): 10.0 ± 1.5 ms | Input R ([2]; Nociceptors (n = 12)): 56.7 ± 5.2 MΩ | Threshold ([2]; Nociceptors (n = 12)): 1276.4 ± 256.0 pA | Tpeak (Time to action potential peak) ([2]; Nociceptors (n = 12)): 5.0 ± 0.7 ms | Trep (Time to repolarizing peak) ([2]; Nociceptors (n = 12)): 5.0 ± 1.1 ms | Vrest (Resting potential) ([2]; Nociceptors (n = 12)): −59.5 ± 1.2 mV | parameters indicative of electrical excitability ([2]; treated at least 3 h with 20 μM): no alteration | allodynia [3]: no reversal
